Experimental data published in patent publication US7109338B2, “1,2-disubstituted 1,4-dihydro-4-oxoquinoline compounds” (priority 1999, dated 2006).
≈ marks a conversion by molar mass, not a printed value.

Experiments:
HRV61 (6669-CV39) = experiment: Anti-rhinovirus spectrum (MTT), HRV61; format: cell-based, human rhinovirus; design: Anti-Rhinovirus activity, HRV61: unit not given here
HRV31 (41F) = experiment: Anti-rhinovirus spectrum (MTT), HRV31; format: cell-based, human rhinovirus; design: Anti-Rhinovirus activity, HRV31: unit not given here
HRV29 (5582) = experiment: Anti-rhinovirus spectrum (MTT), HRV29; format: cell-based, human rhinovirus; design: Anti-Rhinovirus activity, HRV29: unit not given here
HRV 2 (HGP) = experiment: Anti-rhinovirus activity (MTT), HRV2; format: cell-based, human rhinovirus; design: Anti-Rhinovirus activity, HRV2: unit not given here; details: for IC50 HRV2: HeLa (Ohio strain) cells, MTT method, 33° C.
HRV41 (56110) = experiment: Anti-rhinovirus spectrum (MTT), HRV41; format: cell-based, human rhinovirus; design: Anti-Rhinovirus activity, HRV41: unit not given here
[1] = tested on: human rhinovirus type 1B (HRV 1B, B632); experiment: Anti-rhinovirus activity (MTT), HRV1B; format: cell-based; design: Anti-Rhinovirus activity, HRV1B: unit not given here; details: for IC50 HRV1B: HeLa (Ohio strain) cells, MTT method, 33° C.
HRV3(FEB) = experiment: Anti-rhinovirus spectrum (MTT), HRV3; format: cell-based, human rhinovirus; design: Anti-Rhinovirus activity, HRV3: unit not given here
HRV13 (353) = experiment: Anti-rhinovirus spectrum (MTT), HRV13; format: cell-based, human rhinovirus; design: Anti-Rhinovirus activity, HRV13: unit not given here
HRV16 (11757) = experiment: Anti-rhinovirus spectrum (MTT), HRV16; format: cell-based, human rhinovirus; design: Anti-Rhinovirus activity, HRV16: unit not given here
[2] = tested on: clinical isolate (89229T); experiment: microbe, parasite or virus in culture; format: cell-based, human rhinovirus; design: Anti-Rhinovirus activity, Clinical isolated strain: unit not given here
HRV5 = experiment: Anti-rhinovirus spectrum (MTT), HRV5; format: cell-based, human rhinovirus; design: Anti-Rhinovirus activity, HRV5: unit not given here
HRV14 (1059) = experiment: Anti-rhinovirus activity (MTT), HRV14; format: cell-based, human rhinovirus; design: Anti-Rhinovirus activity, HRV14: unit not given here
HRV32 (363) = experiment: Anti-rhinovirus spectrum (MTT), HRV32; format: cell-based, human rhinovirus; design: Anti-Rhinovirus activity, HRV32: unit not given here
HRV50(A2#58) = experiment: Anti-rhinovirus spectrum (MTT), HRV50; format: cell-based, human rhinovirus; design: Anti-Rhinovirus activity, HRV50: unit not given here
HeLa (Ohio strain)cells = experiment: Cytotoxicity (MTT, without virus), HeLa(Ohio); details: HeLa(Ohio), no virus, incubated for 4 days
HRV39 (209) = experiment: Anti-rhinovirus spectrum (MTT), HRV39; format: cell-based, human rhinovirus; design: Anti-Rhinovirus activity, HRV39: unit not given here
HRV33 (1200) = experiment: Anti-rhinovirus spectrum (MTT), HRV33; format: cell-based, human rhinovirus; design: Anti-Rhinovirus activity, HRV33: unit not given here
HRV21 (47) = experiment: Anti-rhinovirus spectrum (MTT), HRV21; format: cell-based, human rhinovirus; design: Anti-Rhinovirus activity, HRV21: unit not given here
HRV1A (E28) = experiment: Anti-rhinovirus activity (MTT), HRV1A; format: cell-based, human rhinovirus; design: Anti-Rhinovirus activity, HRV1A: unit not given here
HRV8(MRH) = experiment: Anti-rhinovirus spectrum (MTT), HRV8; format: cell-based, human rhinovirus; design: Anti-Rhinovirus activity, HRV8: unit not given here
HRV36 (342H) = experiment: Anti-rhinovirus spectrum (MTT), HRV36; format: cell-based, human rhinovirus; design: Anti-Rhinovirus activity, HRV36: unit not given here
HRV10 (204-CV14) = experiment: Anti-rhinovirus spectrum (MTT), HRV10; format: cell-based, human rhinovirus; design: Anti-Rhinovirus activity, HRV10: unit not given here
HRV 89 (41617-Gallo) = experiment: Anti-rhinovirus activity (MTT), HRV89; format: cell-based, human rhinovirus; design: Anti-Rhinovirus activity, HRV89: unit not given here; details: for IC50 HRV89: HeLa (Ohio strain) cells, MTT method, 33° C.
HeLa-S3 cells = experiment: Cytotoxicity (MTT, without virus), HeLa-S3; details: HeLa-S3, no virus, incubated for 4 days
[3] = tested on: Poliovirus type 1 (Polio 1, Sabin); experiment: microbe, parasite or virus in culture; format: cell-based
[4] = tested on: coxsackievirus type B4 (CB4,JVB); experiment: In vitro anti-picornavirus activity (MTT), CB4; format: cell-based; details: HeLa cells, MTT method, 37° C.
[5] = tested on: echovirus type 11 (Echo 11, Gregory); experiment: In vitro anti-picornavirus activity (MTT), Echo 11; format: cell-based; details: HeLa-S3 cells, MTT method, 37° C.
HeLa cells = experiment: Cytotoxicity (MTT, without virus), HeLa; details: HeLa, no virus, incubated for 4 days
[6] = tested on: coxsackievirus type A7 (CA7); experiment: In vitro anti-picornavirus activity (MTT), CA7; format: cell-based; details: HeLa-S3 cells, MTT method, 37° C.
[7] = HeLa (Ohio strain) cells, MTT method, 33° C.

Compound: Cc1c(-c2ccccc2)n(-c2cccc(F)c2)c2ccc(C(C)C)cc2c1=O [Compound A322]
- Anti-Rhinovirus activity, HRV61 (HRV61 (6669-CV39); Table VII, rhinovirus serotype HRV61): 0.29
- Anti-Rhinovirus activity, HRV31 (HRV31 (41F); Table VII, rhinovirus serotype HRV31): 0.045
- Anti-Rhinovirus activity, HRV29 (HRV29 (5582); Table VII, rhinovirus serotype HRV29): 0.080
- IC50 HRV2 (HRV 2 (HGP)): 0.030 µg/mL (≈ 0.0808 µM)
- Anti-Rhinovirus activity, HRV2 (HRV 2 (HGP); Table VII, rhinovirus serotype HRV2): 0.030
- Anti-Rhinovirus activity, HRV41 (HRV41 (56110); Table VII, rhinovirus serotype HRV41): 0.034
- IC50 HRV1B [1]: 0.18 µg/mL (≈ 0.485 µM)
- Anti-Rhinovirus activity, HRV1B ([1]; Table VII, rhinovirus serotype HRV1B): 0.18
- Anti-Rhinovirus activity, HRV3 (HRV3(FEB); Table VII, rhinovirus serotype HRV3): >1.0
- Anti-Rhinovirus activity, HRV13 (HRV13 (353); Table VII, rhinovirus serotype HRV13): 0.029
- Anti-Rhinovirus activity, HRV16 (HRV16 (11757); Table VII, rhinovirus serotype HRV16): 0.030
- Anti-rhinovirus activity Clinically isolated strain ([2]; Table VII, clinical isolate (89229T)): 0.017
- Anti-Rhinovirus activity, HRV5 (HRV5; Table VII, rhinovirus serotype HRV5): >1.0
- Anti-Rhinovirus activity, HRV14 (HRV14 (1059); Table VII, rhinovirus serotype HRV14): >1.0
- Anti-Rhinovirus activity, HRV32 (HRV32 (363); Table VII, rhinovirus serotype HRV32): 0.020
- Anti-Rhinovirus activity, HRV50 (HRV50(A2#58); Table VII, rhinovirus serotype HRV50): 0.023
- Cytotoxicity CC50 HeLa(Ohio) (HeLa (Ohio strain)cells): >1 µg/mL
- Anti-Rhinovirus activity, HRV39 (HRV39 (209); Table VII, rhinovirus serotype HRV39): 0.012
- Anti-Rhinovirus activity, HRV33 (HRV33 (1200); Table VII, rhinovirus serotype HRV33): 0.17
- Anti-Rhinovirus activity, HRV21 (HRV21 (47); Table VII, rhinovirus serotype HRV21): 0.048
- Anti-Rhinovirus activity, HRV1A (HRV1A (E28); Table VII, rhinovirus serotype HRV1A, same method as above): >1.0
- Anti-Rhinovirus activity, HRV8 (HRV8(MRH); Table VII, rhinovirus serotype HRV8): >1.0
- Anti-Rhinovirus activity, HRV36 (HRV36 (342H); Table VII, rhinovirus serotype HRV36): 0.085
- Anti-Rhinovirus activity, HRV10 (HRV10 (204-CV14); Table VII, rhinovirus serotype HRV10): 0.013
- IC50 HRV89 (HRV 89 (41617-Gallo)): 0.034 µg/mL (≈ 0.0915 µM)
- Anti-Rhinovirus activity, HRV89 (HRV 89 (41617-Gallo); Table VII, rhinovirus serotype HRV89): 0.034

Compound: CCn1c2c(c(=O)c3cc(C(C)C)ccc31)Cc1ccccc1-2.Cl [Compound B3]
- Anti-Rhinovirus activity, HRV61 (HRV61 (6669-CV39); HRV61): 0.80
- Anti-Rhinovirus activity, HRV31 (HRV31 (41F); HRV31): 0.29
- Anti-Rhinovirus activity, HRV29 (HRV29 (5582); HRV29): 1.5
- Anti-Rhinovirus activity, HRV2 (HRV 2 (HGP); HRV2): 0.54
- IC50 HRV2 (HRV 2 (HGP)): 0.54 µg/mL
- Anti-Rhinovirus activity, HRV41 (HRV41 (56110); HRV41): 0.20
- Cytotoxicity CC50 HeLa-S3 (HeLa-S3 cells): >4 µg/mL
- Anti-Rhinovirus activity, HRV1B ([1]; HRV1B): 0.30
- IC50 HRV1B [1]: 0.30 µg/mL
- Anti-Rhinovirus activity, HRV3 (HRV3(FEB); HRV3): 2.9
- IC50 Polio 1 [3]: 0.72 µg/mL
- Anti-Rhinovirus activity, HRV13 (HRV13 (353); HRV13): 0.17
- Anti-Rhinovirus activity, HRV16 (HRV16 (11757); HRV16): 2.3
- Anti-Rhinovirus activity, Clinical isolated strain ([2]; Clinical isolated strain): 1.9
- Anti-Rhinovirus activity, HRV5 (HRV5; HRV5): 0.36
- Anti-Rhinovirus activity, HRV14 (HRV14 (1059); HRV14): 0.74
- IC50 HRV 14 (HRV14 (1059); [7]): 0.74 µg/mL
- Anti-Rhinovirus activity, HRV32 (HRV32 (363); HRV32): 0.61
- Anti-Rhinovirus activity, HRV50 (HRV50(A2#58); HRV50): 0.20
- IC50 CB4 [4]: 0.82 µg/mL
- Cytotoxicity CC50 HeLa(Ohio) (HeLa (Ohio strain)cells): >4 µg/mL
- Anti-Rhinovirus activity, HRV39 (HRV39 (209); HRV39): 1.7
- Anti-Rhinovirus activity, HRV33 (HRV33 (1200); HRV33): 0.20
- Anti-Rhinovirus activity, HRV21 (HRV21 (47); HRV21): 0.20
- IC50 Echo 11 [5]: 0.35 µg/mL
- Cytotoxicity CC50 HeLa (HeLa cells): >4 µg/mL
- Anti-Rhinovirus activity, HRV1A (HRV1A (E28); HRV1A): 2.6
- IC50 HRV 1A (HRV1A (E28); [7]): 2.6 µg/mL
- Anti-Rhinovirus activity, HRV8 (HRV8(MRH); HRV8): 0.46
- Anti-Rhinovirus activity, HRV36 (HRV36 (342H); HRV36): 0.30
- Anti-Rhinovirus activity, HRV10 (HRV10 (204-CV14); HRV10): 1.8
- Anti-Rhinovirus activity, HRV89 (HRV 89 (41617-Gallo); HRV89): 0.57
- IC50 HRV89 (HRV 89 (41617-Gallo)): 0.57 µg/mL
- IC50 CA7 [6]: 2.1 µg/mL
